Among the targets are Vasopressin V2 receptor (Homo sapiens, UniProt P30518); Cannabinoid receptor 1 (Homo sapiens, UniProt P21554); Mu-type opioid receptor (Homo sapiens, UniProt P35372).
The target of experiment [1] is Voltage-dependent L-type calcium channel subunit alpha-1C (Rattus norvegicus, UniProt P22002). The class given is functional.
For experiment [2], the target named is T1, Muscarinic acetylcholine receptor M1 (Homo sapiens, UniProt P11229).
T1 sequence (P11229 whole entry): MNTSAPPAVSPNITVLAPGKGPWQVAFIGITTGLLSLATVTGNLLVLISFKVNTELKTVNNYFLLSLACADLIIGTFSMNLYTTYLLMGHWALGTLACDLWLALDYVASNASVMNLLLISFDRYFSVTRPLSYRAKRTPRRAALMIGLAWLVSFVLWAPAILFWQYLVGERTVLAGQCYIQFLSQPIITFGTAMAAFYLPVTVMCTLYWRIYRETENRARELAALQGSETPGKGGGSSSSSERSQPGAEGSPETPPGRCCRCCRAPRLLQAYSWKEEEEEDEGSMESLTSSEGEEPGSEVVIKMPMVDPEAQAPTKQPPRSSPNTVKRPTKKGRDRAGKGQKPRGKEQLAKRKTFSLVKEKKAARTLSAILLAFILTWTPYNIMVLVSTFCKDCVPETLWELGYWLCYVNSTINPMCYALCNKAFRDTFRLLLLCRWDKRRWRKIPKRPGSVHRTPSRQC
It is filed as functional, cell-based.

For experiment [3], the target named is Kappa-type opioid receptor (Homo sapiens, UniProt P41145).
Kappa-type opioid receptor, sequence (P41145 whole entry): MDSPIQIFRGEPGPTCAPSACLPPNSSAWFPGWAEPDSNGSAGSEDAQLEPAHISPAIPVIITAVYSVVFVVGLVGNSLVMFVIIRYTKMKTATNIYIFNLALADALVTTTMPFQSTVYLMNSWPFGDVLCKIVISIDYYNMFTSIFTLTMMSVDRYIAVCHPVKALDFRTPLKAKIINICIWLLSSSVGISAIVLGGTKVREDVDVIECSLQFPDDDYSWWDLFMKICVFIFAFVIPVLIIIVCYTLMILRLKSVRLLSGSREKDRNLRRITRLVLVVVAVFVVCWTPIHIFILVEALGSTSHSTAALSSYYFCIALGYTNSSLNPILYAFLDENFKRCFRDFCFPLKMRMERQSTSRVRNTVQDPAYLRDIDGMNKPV
Experiment [4] concerns the target 3',5'-cyclic-AMP phosphodiesterase 4A (Homo sapiens, UniProt P27815). It is filed as functional.
The next experiment has as its target T2, Progesterone receptor (Homo sapiens, UniProt P06401).
T2 sequence (P06401 whole entry): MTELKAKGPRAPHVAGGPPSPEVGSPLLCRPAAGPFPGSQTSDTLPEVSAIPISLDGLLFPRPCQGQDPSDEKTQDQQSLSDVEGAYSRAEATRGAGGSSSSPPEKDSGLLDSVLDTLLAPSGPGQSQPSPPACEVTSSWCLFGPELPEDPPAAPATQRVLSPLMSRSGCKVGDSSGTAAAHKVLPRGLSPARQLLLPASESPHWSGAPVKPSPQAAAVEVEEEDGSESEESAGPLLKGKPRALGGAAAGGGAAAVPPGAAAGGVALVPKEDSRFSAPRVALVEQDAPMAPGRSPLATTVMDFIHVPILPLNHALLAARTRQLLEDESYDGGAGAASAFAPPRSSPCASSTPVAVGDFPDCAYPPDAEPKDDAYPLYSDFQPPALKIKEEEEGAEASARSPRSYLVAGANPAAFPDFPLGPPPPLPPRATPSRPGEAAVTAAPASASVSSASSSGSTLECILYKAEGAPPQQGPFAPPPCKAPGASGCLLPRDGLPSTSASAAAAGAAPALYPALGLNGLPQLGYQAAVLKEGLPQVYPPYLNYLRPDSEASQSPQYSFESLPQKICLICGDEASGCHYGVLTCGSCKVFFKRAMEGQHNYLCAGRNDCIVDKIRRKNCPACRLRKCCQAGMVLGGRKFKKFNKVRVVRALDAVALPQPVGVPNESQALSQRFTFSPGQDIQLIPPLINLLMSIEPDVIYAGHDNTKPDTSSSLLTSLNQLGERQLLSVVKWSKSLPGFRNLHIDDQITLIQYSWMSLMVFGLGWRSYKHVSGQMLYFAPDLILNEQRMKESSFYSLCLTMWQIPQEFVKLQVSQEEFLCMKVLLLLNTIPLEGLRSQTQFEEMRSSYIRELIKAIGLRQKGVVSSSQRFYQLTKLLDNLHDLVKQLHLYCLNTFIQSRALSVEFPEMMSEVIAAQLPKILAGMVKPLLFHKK

The target of experiment [5] is Prostaglandin G/H synthase 1 (Homo sapiens, UniProt P23219). The class given is functional.
Prostaglandin G/H synthase 1, sequence (P23219 whole entry): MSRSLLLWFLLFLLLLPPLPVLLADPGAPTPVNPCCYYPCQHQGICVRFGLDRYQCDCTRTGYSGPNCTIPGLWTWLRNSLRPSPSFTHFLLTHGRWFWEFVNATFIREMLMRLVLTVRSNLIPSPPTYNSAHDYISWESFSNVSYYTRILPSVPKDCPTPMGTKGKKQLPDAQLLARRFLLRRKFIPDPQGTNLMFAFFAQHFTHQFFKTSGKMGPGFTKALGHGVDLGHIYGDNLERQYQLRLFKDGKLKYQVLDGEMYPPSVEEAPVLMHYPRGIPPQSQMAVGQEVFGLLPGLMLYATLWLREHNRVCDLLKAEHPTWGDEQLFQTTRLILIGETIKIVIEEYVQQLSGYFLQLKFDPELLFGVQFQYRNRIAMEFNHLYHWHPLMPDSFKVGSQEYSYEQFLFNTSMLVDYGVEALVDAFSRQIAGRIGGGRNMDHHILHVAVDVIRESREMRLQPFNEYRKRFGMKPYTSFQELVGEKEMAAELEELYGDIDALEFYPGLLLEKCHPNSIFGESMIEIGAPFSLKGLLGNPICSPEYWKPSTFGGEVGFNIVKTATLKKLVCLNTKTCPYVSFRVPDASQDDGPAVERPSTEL
The target of experiment [6] is T3, Sodium-dependent serotonin transporter (Homo sapiens, UniProt P31645).
The next experiment has as its target T4, Thromboxane A2 receptor (Homo sapiens, UniProt P21731).
T4 sequence (P21731 whole entry): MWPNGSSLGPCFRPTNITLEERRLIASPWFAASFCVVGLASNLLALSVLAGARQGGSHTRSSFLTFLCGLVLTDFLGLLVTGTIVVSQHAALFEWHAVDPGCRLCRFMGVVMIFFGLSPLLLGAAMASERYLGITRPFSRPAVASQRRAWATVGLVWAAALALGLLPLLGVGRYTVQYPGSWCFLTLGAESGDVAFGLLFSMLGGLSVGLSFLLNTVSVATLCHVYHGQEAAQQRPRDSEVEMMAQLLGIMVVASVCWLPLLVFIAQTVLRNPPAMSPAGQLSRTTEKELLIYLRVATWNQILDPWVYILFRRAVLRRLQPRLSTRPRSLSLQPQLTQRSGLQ
It is filed as functional, cell-based.

Experiment [7] addresses T3, Sodium-dependent serotonin transporter. This is another data set of the same source.
The target of experiment [8] is Vascular endothelial growth factor receptor 2 (Homo sapiens, UniProt P35968). It is filed as functional.
Experiment [9] concerns the target T5, Alpha-1A adrenergic receptor (Homo sapiens, UniProt P35348).
T5 sequence (P35348 whole entry): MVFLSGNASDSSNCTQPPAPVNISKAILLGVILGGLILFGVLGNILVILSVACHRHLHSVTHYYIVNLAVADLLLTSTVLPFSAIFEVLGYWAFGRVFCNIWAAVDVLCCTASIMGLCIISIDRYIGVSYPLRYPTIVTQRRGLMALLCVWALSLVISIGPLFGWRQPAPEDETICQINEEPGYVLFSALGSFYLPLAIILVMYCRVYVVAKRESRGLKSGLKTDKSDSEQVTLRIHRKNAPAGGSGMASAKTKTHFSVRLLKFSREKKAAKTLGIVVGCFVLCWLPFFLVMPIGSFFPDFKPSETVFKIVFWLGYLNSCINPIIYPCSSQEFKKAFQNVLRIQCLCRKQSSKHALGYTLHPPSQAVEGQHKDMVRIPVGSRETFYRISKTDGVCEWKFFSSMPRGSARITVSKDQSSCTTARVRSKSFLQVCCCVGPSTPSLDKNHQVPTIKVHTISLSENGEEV
It is filed as functional, cell-based.
Note: assay procedure not described here.

Voltage-dependent L-type calcium channel subunit alpha-1C, sequence (P22002 whole entry): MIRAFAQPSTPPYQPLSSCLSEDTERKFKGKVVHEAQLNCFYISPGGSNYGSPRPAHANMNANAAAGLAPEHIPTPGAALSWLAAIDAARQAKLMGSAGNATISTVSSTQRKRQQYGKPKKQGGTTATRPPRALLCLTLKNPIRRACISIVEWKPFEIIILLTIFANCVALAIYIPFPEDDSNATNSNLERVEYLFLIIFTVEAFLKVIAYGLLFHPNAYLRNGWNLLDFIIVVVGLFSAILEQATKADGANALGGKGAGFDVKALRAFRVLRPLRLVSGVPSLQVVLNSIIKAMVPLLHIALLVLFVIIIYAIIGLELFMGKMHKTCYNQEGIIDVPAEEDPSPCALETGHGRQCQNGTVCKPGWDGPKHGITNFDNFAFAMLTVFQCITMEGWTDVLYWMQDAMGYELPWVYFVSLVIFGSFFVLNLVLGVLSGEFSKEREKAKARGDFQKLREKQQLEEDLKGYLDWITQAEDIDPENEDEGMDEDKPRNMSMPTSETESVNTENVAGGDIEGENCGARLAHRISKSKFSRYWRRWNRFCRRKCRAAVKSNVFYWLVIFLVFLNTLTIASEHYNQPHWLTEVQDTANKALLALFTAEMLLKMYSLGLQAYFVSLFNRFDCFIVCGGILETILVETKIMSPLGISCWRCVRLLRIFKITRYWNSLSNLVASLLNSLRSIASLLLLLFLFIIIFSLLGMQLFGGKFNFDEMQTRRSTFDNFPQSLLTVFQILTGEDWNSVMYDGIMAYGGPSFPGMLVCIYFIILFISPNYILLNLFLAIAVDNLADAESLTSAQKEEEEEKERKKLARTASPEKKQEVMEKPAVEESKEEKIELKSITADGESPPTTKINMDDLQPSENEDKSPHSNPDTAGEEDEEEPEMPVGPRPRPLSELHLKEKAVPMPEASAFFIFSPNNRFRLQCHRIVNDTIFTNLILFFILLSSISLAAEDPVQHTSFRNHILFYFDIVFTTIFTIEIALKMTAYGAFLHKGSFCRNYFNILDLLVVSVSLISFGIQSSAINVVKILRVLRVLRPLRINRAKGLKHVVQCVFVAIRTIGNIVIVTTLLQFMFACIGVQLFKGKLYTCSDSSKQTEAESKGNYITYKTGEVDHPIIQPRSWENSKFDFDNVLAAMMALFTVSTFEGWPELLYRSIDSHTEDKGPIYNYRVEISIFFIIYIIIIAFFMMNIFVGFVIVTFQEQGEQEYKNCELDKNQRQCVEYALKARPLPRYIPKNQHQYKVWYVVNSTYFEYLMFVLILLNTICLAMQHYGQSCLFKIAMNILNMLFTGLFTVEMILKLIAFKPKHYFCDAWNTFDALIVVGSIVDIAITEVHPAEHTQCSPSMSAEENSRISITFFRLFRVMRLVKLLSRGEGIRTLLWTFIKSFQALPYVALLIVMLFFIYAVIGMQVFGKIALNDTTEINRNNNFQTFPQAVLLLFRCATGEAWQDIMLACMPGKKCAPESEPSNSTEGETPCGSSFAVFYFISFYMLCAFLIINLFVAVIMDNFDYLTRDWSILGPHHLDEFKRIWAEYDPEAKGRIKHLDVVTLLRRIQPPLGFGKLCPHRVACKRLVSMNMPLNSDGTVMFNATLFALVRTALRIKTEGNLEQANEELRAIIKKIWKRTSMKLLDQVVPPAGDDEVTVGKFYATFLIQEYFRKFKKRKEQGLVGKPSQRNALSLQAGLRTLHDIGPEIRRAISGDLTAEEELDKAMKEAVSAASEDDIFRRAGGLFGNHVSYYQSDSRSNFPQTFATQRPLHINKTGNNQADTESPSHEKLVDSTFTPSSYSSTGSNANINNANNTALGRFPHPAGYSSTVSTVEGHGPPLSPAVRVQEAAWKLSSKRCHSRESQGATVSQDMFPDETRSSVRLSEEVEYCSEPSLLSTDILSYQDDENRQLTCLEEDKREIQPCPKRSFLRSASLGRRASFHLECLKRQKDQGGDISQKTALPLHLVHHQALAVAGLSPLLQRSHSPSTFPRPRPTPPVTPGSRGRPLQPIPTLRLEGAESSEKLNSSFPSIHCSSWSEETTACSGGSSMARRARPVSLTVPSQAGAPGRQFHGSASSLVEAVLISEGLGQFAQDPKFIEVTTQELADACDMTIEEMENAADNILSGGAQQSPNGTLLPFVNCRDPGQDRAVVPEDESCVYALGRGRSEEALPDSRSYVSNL
3',5'-cyclic-AMP phosphodiesterase 4A, sequence (P27815 whole entry): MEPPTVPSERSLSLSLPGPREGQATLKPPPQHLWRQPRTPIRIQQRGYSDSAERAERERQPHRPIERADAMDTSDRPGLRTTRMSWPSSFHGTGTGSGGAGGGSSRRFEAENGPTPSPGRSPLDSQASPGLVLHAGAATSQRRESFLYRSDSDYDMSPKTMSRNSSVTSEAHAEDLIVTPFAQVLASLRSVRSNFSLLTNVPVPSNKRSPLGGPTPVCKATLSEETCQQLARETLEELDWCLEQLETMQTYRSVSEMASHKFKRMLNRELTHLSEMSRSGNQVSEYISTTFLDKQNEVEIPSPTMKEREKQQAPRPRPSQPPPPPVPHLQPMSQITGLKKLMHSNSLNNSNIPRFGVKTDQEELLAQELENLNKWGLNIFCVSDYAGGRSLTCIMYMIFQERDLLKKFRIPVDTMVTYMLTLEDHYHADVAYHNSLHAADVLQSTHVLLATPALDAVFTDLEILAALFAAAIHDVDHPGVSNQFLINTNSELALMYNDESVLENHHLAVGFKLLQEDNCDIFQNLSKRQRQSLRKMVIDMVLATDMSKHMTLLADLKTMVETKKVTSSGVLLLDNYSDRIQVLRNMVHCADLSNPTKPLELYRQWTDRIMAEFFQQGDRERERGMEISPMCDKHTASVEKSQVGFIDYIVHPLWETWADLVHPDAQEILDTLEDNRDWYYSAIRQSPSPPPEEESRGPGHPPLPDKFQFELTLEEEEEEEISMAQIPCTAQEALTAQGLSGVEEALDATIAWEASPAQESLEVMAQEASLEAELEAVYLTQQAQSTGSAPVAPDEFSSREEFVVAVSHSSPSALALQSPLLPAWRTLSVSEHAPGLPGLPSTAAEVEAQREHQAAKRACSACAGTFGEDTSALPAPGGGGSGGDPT
Mu-type opioid receptor, sequence (P35372 whole entry): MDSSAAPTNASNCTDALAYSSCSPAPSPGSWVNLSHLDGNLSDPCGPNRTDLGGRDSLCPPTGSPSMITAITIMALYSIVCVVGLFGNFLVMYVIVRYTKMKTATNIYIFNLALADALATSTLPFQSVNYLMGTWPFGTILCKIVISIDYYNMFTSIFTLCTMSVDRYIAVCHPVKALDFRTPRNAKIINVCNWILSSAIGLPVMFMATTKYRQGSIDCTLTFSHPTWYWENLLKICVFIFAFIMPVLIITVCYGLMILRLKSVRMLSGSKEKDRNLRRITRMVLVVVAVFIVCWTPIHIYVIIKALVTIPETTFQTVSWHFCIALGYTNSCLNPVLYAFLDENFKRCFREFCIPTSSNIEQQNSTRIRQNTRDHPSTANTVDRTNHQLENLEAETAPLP
Cannabinoid receptor 1, sequence (P21554 whole entry): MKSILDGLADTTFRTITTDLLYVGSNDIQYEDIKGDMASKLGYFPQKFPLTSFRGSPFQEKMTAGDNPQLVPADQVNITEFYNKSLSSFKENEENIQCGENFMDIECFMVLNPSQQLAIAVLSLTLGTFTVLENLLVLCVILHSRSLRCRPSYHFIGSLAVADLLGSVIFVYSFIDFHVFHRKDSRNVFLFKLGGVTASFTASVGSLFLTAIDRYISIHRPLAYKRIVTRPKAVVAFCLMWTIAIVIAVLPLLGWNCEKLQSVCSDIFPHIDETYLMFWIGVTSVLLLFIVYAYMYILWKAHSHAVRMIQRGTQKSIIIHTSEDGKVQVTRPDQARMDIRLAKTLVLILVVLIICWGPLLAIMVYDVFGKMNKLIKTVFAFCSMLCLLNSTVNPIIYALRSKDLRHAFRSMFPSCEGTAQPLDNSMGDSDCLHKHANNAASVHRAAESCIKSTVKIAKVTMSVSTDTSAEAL

Broadly, the AC50 is the midpoint of the concentration-response curve, whichever way the signal moves. In the case of `CC1(C)NC(=O)N(c2ccc([N+](=O)[O-])c(C(F)(F)F)c2)C1=O` [NILUTAMIDE], the AC50 (on Vasopressin V2 receptor; in experiment [1]; in experiment [2]; on Cannabinoid receptor 1; in experiment [3]; at Mu-type opioid receptor) was over 30 µM each time. The AC50 is over 30 µM in experiment [4]; 12.7 µM on Progesterone receptor; over 30 µM in [5]; over 30 µM in experiment [6]; over 3 µM on Thromboxane A2 receptor; over 30 µM in [7].
For the compound `CO[C@H]1C[C@@H]2CC[C@@H](C)[C@@](O)(O2)C(=O)C(=O)N2CCCC[C@H]2C(=O)O[C@H]([C@H](C)C[C@@H]2CC[C@@H](O)[C@H](OC)C2)CC(=O)[C@H](C)/C=C(\C)[C@@H](O)[C@@H](OC)C(=O)[C@H](C)C[C@H](C)/C=C/C=C/C=C/1C` [SIROLIMUS], the AC50 on Vasopressin V2 receptor was over 30 µM; in experiment [1], over 10 µM; at Cannabinoid receptor 1, over 10 µM; in experiment [8], over 30 µM; in [3], over 10 µM; at Mu-type opioid receptor, over 30 µM. Besides, the half-maximal activity concentration (AC50) in experiment [4] was over 30 µM; at Progesterone receptor, over 30 µM; in experiment [5], 26.6 µM; at Thromboxane A2 receptor, over 30 µM; in experiment [9], over 30 µM.
On to `Cc1cn([C@H]2C=C[C@@H](CO)O2)c(=O)[nH]c1=O` [STAVUDINE], for which the concentration at half-maximal activity (AC50) on Vasopressin V2 receptor is over 30 µM; in [1] it was over 10 µM; at Cannabinoid receptor 1, over 10 µM; in experiment [8] it was over 30 µM; in [3] it was over 10 µM; at Mu-type opioid receptor, over 30 µM. The AC50 (in experiment [4]; on Progesterone receptor; in experiment [5]; at Thromboxane A2 receptor; in experiment [9]) was over 30 µM throughout.
